Measurements published in PubChem BioAssay AID1963980 (Molecular Pharmacology Branch, DTP, NCI, 2024).
pIC50: −log10 of the molar value. “And” between values parts separate entries of the source, which are not always exact repeats. Equal values may be shown once.

System: 475296-252-R-J1-PDC spheroid viability
Assay: Anticancer human tumor 475296-252-R-J1-PDC patient-derived rectal carcinoma cell line growth inhibition [PI3K]
Details: spheroids with HUVEC and MSC; for viability, T/C: stronger effect = lower value
How it was run: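 Targeted small molecules plus PI3K inhibitors, half-log dose series from Cmax (default top 10 microM), were applied to heterotypic spheroids of cancer cells with HUVEC and MSCs. Viability indicated growth inhibition.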

[1] = curve of first compound, second compound 0.0316 µM
[2] = curve of first compound, second compound 0.1 µM
[3] = curve of first compound, second compound 0.316 µM
[4] = curve of first compound, second compound 1 µM
[5] = second compound 0.0316 µM, first compound 0.000316 µM
[6] = second compound 0.0316 µM, first compound 0.001 µM
[7] = second compound 0.0316 µM, first compound 0.00316 µM
[8] = second compound 0.0316 µM, first compound 0.01 µM
[9] = second compound 0.0316 µM, first compound 0.0316 µM
[10] = second compound 0.0316 µM, first compound 0.1 µM
[11] = second compound 0.1 µM, first compound 0.000316 µM
[12] = second compound 0.1 µM, first compound 0.001 µM
[13] = second compound 0.1 µM, first compound 0.00316 µM
[14] = second compound 0.1 µM, first compound 0.01 µM
[15] = second compound 0.1 µM, first compound 0.0316 µM
[16] = second compound 0.1 µM, first compound 0.1 µM
[17] = second compound 0.316 µM, first compound 0.000316 µM
[18] = second compound 0.316 µM, first compound 0.001 µM
[19] = second compound 0.316 µM, first compound 0.00316 µM
[20] = second compound 0.316 µM, first compound 0.01 µM
[21] = second compound 0.316 µM, first compound 0.0316 µM
[22] = second compound 0.316 µM, first compound 0.1 µM
[23] = second compound 1 µM, first compound 0.000316 µM
[24] = second compound 1 µM, first compound 0.001 µM
[25] = second compound 1 µM, first compound 0.00316 µM
[26] = second compound 1 µM, first compound 0.01 µM
[27] = second compound 1 µM, first compound 0.0316 µM
[28] = second compound 1 µM, first compound 0.1 µM
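Also: spheroids exposed to agents for seven days before readout.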

`CC(C)n1nc(-c2ccc3oc(N)nc3c2)c2c(N)ncnc21` + CC(Nc1ncnc2nc[nH]c12)c1cc2cccc(Cl)c2c(=O)n1-c1ccccc1 was tested, and the pIC50 [1] was under 7.00, the pIC50 [2] was under 7.00 and the pIC50 [3] was under 7.00. It also gave a pIC50 [4] of under 7.00, a pIC50 (curve of first compound, second compound 3.16 µM) of under 7.00 and a pIC50 (curve of first compound, second compound 10 µM) of under 7.00. It also gave a viability, T/C [5] of 87.4%, a viability, T/C [6] of 101% and a viability, T/C [7] of 96%. It also gave a viability, T/C [8] of 76.7%, a viability, T/C [9] of 66.4% and a viability, T/C [10] of 59.6%. For the same compound, the viability, T/C [11] was 97.8%, the viability, T/C [12] was 88.2% and the viability, T/C [13] was 78%. For the same compound, the viability, T/C [14] was 72.9%, the viability, T/C [15] was 77.4% and the viability, T/C [16] was 62.3%. It also gave a viability, T/C [17] of 101%, a viability, T/C [18] of 110% and a viability, T/C [19] of 105%. The viability, T/C [20] was 92.7%, the viability, T/C [21] was 65.9% and the viability, T/C [22] was 56.4%. It also gave a viability, T/C [23] of 111%, a viability, T/C [24] of 97.8% and a viability, T/C [25] of 84.9%. The viability, T/C [26] was 88.5%, the viability, T/C [27] was 63% and the viability, T/C [28] was 59.2%. It also gave a viability, T/C (second compound 3.16 µM, first compound 0.000316 µM) of 87.8%, a viability, T/C (second compound 3.16 µM, first compound 0.001 µM) of 101% and a viability, T/C (second compound 3.16 µM, first compound 0.00316 µM) of 94.6%. For the same compound, the viability, T/C (second compound 3.16 µM, first compound 0.01 µM) was 75.2%, the viability, T/C (second compound 3.16 µM, first compound 0.0316 µM) was 66.8% and the viability, T/C (second compound 3.16 µM, first compound 0.1 µM) was 61.2%. For the same compound, the viability, T/C (second compound 10 µM, first compound 0.000316 µM) was 91.3%, the viability, T/C (second compound 10 µM, first compound 0.001 µM) was 92% and the viability, T/C (second compound 10 µM, first compound 0.00316 µM) was 88.9%. It also gave a viability, T/C (second compound 10 µM, first compound 0.01 µM) of 80.3%, a viability, T/C (second compound 10 µM, first compound 0.0316 µM) of 68.9% and a viability, T/C (second compound 10 µM, first compound 0.1 µM) of 63.6%.

In the case of `CC1(C)CCC(CN2CCN(c3ccc(C(=O)NS(=O)(=O)c4ccc(NCC5CCOCC5)c([N+](=O)[O-])c4)c(Oc4cnc5[nH]ccc5c4)c3)CC2)=C(c2ccc(Cl)cc2)C1`, the viability, T/C (compound 0.0316 µM) was 97.2% and 102% (2×) and 99.9%, the viability, T/C (compound 0.1 µM) was 97% [middle of 4 runs] and the viability, T/C (compound 0.316 µM) was 101% [middle of 4 runs]. For the same compound, the viability, T/C (compound 1 µM) was 101% [middle of 4 runs], the viability, T/C (compound 3.16 µM) was 101% (2×) and 94.9% and 88% and the pIC50 (curve of compound) was under 5.00.

Work on `Cn1ncnc1[C@H]1c2n[nH]c(=O)c3cc(F)cc(c23)N[C@@H]1c1ccc(F)cc1` + CC(Nc1ccc2c(c1)OCCn1cc(N3C(=O)OCC3C(F)F)nc1-2)C(N)=O yielded a pIC50 (curve of first compound, second compound 0.00316 µM) of under 7.00, a pIC50 (curve of first compound, second compound 0.01 µM) of under 7.00 and a pIC50 [1] of under 7.00. For the same compound, the pIC50 [2] was under 7.00, the pIC50 [3] was under 7.00 and the pIC50 [4] was under 7.00. For the same compound, the viability, T/C (second compound 0.00316 µM, first compound 0.000316 µM) was 88.1%, the viability, T/C (second compound 0.00316 µM, first compound 0.001 µM) was 84.3% and the viability, T/C (second compound 0.00316 µM, first compound 0.00316 µM) was 94.8%. It also gave a viability, T/C (second compound 0.00316 µM, first compound 0.01 µM) of 93.2%, a viability, T/C (second compound 0.00316 µM, first compound 0.0316 µM) of 97.2% and a viability, T/C (second compound 0.00316 µM, first compound 0.1 µM) of 90.1%. For the same compound, the viability, T/C (second compound 0.01 µM, first compound 0.000316 µM) was 98.4%, the viability, T/C (second compound 0.01 µM, first compound 0.001 µM) was 82.9% and the viability, T/C (second compound 0.01 µM, first compound 0.00316 µM) was 89.2%. It also gave a viability, T/C (second compound 0.01 µM, first compound 0.01 µM) of 95.1%, a viability, T/C (second compound 0.01 µM, first compound 0.0316 µM) of 92.8% and a viability, T/C (second compound 0.01 µM, first compound 0.1 µM) of 92%. It also gave a viability, T/C [5] of 86.1%, a viability, T/C [6] of 104% and a viability, T/C [7] of 88.8%. The viability, T/C [8] was 87.4%, the viability, T/C [9] was 88% and the viability, T/C [10] was 96.6%. It also gave a viability, T/C [11] of 92.4%, a viability, T/C [12] of 101% and a viability, T/C [13] of 93.6%. The viability, T/C [14] was 92.6%, the viability, T/C [15] was 89.7% and the viability, T/C [16] was 97.9%. It also gave a viability, T/C [17] of 81.8%, a viability, T/C [18] of 83.4% and a viability, T/C [19] of 86.1%. For the same compound, the viability, T/C [20] was 84.6%, the viability, T/C [21] was 89.8% and the viability, T/C [22] was 81.6%. For the same compound, the viability, T/C [23] was 84.5%, the viability, T/C [24] was 71.6% and the viability, T/C [25] was 87%. It also gave a viability, T/C [26] of 89.1%, a viability, T/C [27] of 85% and a viability, T/C [28] of 79.6%.
